# Test results: patent publication US20260176594A1, “REDUCING DISEASE TRANSMISSION OF VECTOR BORNE DISEASES” (priority 2022, published 2026)
# Tested on: Zika virus
# Assay: Zika virus replication in Aedes aegypti mosquitoes fed blood meal with harmane, plaque assay on VERO cells
# Type: in vivo
# Conditions: harmane in infectious blood meal, 7 days; for Zika virus PFU/mL in mosquito abdomens: vs control group
# Method: 3-to-5-day-old Aedes aegypti strain SBE mosquitoes were fed via membrane feeders on a blood meal (rabbit blood) containing approximately 10^7 PFU/ml Zika virus and the indicated concentrations of harmane dissolved in dimethyl sulphoxide (DMSO). The bloodmeal fed to the control group contained no harmane. Fully engorged mosquitoes were selected and kept on a 10% sucrose diet. In total, 30 mosquitoes were analyzed per treatment.
# After 7 days, the abdomens of mosquitoes were dissected and placed in 2 mL tubes containing glass beads and 300 μL of DMEM medium. Samples were homogenized. A 1:10 dilution series of this solution was dispersed onto 96-well plates containing VERO cells. 5-6 days later, the medium was discarded and viral plaques were fixed and developed with staining reagent (1% crystal violet in […] solution) at room temperature for 1 h. 5
# Plates were rinsed with distilled water and air-dried. Plaques were counted and multiplied by the corresponding dilution factors to calculate the number of plaque-forming units (PFUs). Horizontal red lines are median values. […] Statistical differences were assessed using the nonparametric Mann-Whitney test.
compound,measurement,setting,value
"Cc1nccc2c1[nH]c1ccccc12 [harmane, 1-Methyl-9H-pyrido[3,4-b]indole]",statistical difference of treated groups compared to the DMSO-control (Mann-Whitney),,No significant differences
same,Zika virus PFU/mL in mosquito abdomens,,reduced level
same,Zika virus PFU/mL in mosquito abdomens,listed as Harmane,dose dependent decrease
